PubChem BioAssay AID330 (DTP/NCI, 2004)
Toxic doses and inconclusive results are not listed. The calls were made as follows: active = survival T/C of 150% or more; inactive = T/C below 125% in these data.

System: P388 leukemia ip, CD2F1 mice, survival T/C
Experiment: NCI In Vivo Anticancer Drug Screen. Data for tumor model P388 Leukemia (intraperitoneal) in CD2F1 (CDF1) mice
Conditions: endpoint: median survival time, higher = longer survival
Procedure, shortened: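 Mice carrying the transplanted tumor received test compound or vehicle. Survival was recorded in each group, and the value is the treated-group measurement divided by that of the vehicle-treated control group.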

[1] = dose: 60.0 mg/kg/injection, schedule: Q01DX005 (ip), vehicle: Klucel (hydroxypropylcellulose) (HPC)
[2] = dose: 120.0 mg/kg/injection, schedule: Q01DX005 (ip), vehicle: Klucel (hydroxypropylcellulose) (HPC)
[3] = dose: 240.0 mg/kg/injection, schedule: Q01DX005 (ip), vehicle: Klucel (hydroxypropylcellulose) (HPC)
[4] = dose: 50.0 mg/kg/injection, schedule: Q01DX009 (ip), vehicle: saline
[5] = dose: 100.0 mg/kg/injection, schedule: Q01DX009 (ip), vehicle: saline
[6] = dose: 200.0 mg/kg/injection, schedule: Q01DX009 (ip), vehicle: saline
[7] = dose: 60.0 mg/kg/injection, schedule: Q01DX005 (ip), vehicle: saline with Tween-80
[8] = dose: 120.0 mg/kg/injection, schedule: Q01DX005 (ip), vehicle: saline with Tween-80
[9] = dose: 240.0 mg/kg/injection, schedule: Q01DX005 (ip), vehicle: saline with Tween-80
[10] = dose: 100.0 mg/kg/injection, schedule: Q04DX003 (ip), vehicle: saline
[11] = dose: 50.0 mg/kg/injection, schedule: Q01DX005 (ip), vehicle: saline with Tween-80
[12] = dose: 100.0 mg/kg/injection, schedule: Q01DX005 (ip), vehicle: saline with Tween-80
[13] = dose: 200.0 mg/kg/injection, schedule: Q01DX005 (ip), vehicle: saline with Tween-80
[14] = dose: 50.0 mg/kg/injection, schedule: Q01DX009 (ip), vehicle: saline with Tween-80
[15] = dose: 100.0 mg/kg/injection, schedule: Q01DX009 (ip), vehicle: saline with Tween-80
[16] = dose: 200.0 mg/kg/injection, schedule: Q01DX009 (ip), vehicle: saline with Tween-80
[17] = dose: 50.0 mg/kg/injection, schedule: Q04DX003 (ip), vehicle: saline

Measured: T/C

CNC1NC(=O)c2ccccc2N1Cc1ccc(F)cc1 (configuration not stated)
inactive: [1] 94 % of control | [2] 92 % of control | [3] 94 % of control

O=[N+]([O-])c1ccc(Sc2ccc(Cl)cc2)c2nonc12
inactive: dose: 6.25 mg/kg/injection, schedule: Q01DX009 (ip), vehicle: saline with Tween-80 105 % of control | dose: 12.5 mg/kg/injection, schedule: Q01DX009 (ip), vehicle: saline with Tween-80 101 % of control | dose: 25.0 mg/kg/injection, schedule: Q01DX009 (ip), vehicle: saline with Tween-80 93 % of control

[CH3][Ge]([CH3])=[O]
inactive: [4] 102 % of control | [5] 91 % of control | [6] 100 % of control

Cc1no[n+]([O-])c1C(N)=O
inactive: [7] 101 % of control | [8] 100 % of control | [9] 102 % of control

N=C(N)c1ccc2oc(/C=C/C=C/C=C/c3cc4cc(C(=N)N)ccc4o3)cc2c1
inactive: [10] 124 % of control

CCCNC(=O)OCCN(CCOC(=O)NCCC)CCc1cccc(OC)c1OC
inactive: dose: 60.0 mg/kg/injection, schedule: Q01DX005 (ip), vehicle: saline 101 % of control | dose: 120.0 mg/kg/injection, schedule: Q01DX005 (ip), vehicle: saline 105 % of control | dose: 240.0 mg/kg/injection, schedule: Q01DX005 (ip), vehicle: saline 100 % of control

CC(=O)OC1CCC2(C)C(=O)CCC3C=C(C(=O)C3CSc3ccc(Br)cc3)C(O)CC2C1(C)C (configuration not stated)
inactive: dose: 11.25 mg/kg/injection, schedule: Q01DX009 (ip), vehicle: Klucel (hydroxypropylcellulose) (HPC) 95 % of control | dose: 22.5 mg/kg/injection, schedule: Q01DX009 (ip), vehicle: Klucel (hydroxypropylcellulose) (HPC) 100 % of control | dose: 45.0 mg/kg/injection, schedule: Q01DX009 (ip), vehicle: Klucel (hydroxypropylcellulose) (HPC) 94 % of control | dose: 90.0 mg/kg/injection, schedule: Q01DX009 (ip), vehicle: Klucel (hydroxypropylcellulose) (HPC) 100 % of control

CCCCCCCCCCCCCCCCCCOC(=O)CCN
inactive: [11] 101 % of control | [12] 109 % of control | [13] 113 % of control

CCCCCCCCCCCC(=O)N(CCOC(=O)c1ccccc1)CCc1ccccc1
inactive: [14] 109 % of control | [15] 109 % of control | [16] 116 % of control

CCOC(=O)N1c2ccccc2C(c2ccccc2)=NC1(C)C#N (configuration not stated)
inactive: [11] 97 % of control | [12] 99 % of control | [13] 99 % of control

CC1=C(CO)C(=O)OC(C(C)C2CCC3C4CC5OC56C(O)C(N5CCCCCC5)CC(=O)C6(C)C4CCC23C)C1 (configuration not stated)
inactive: dose: 9.38 mg/kg/injection, schedule: Q01DX005 (ip), vehicle: Klucel (hydroxypropylcellulose) (HPC) 101 % of control | dose: 18.75 mg/kg/injection, schedule: Q01DX005 (ip), vehicle: Klucel (hydroxypropylcellulose) (HPC) 101 % of control | dose: 37.5 mg/kg/injection, schedule: Q01DX005 (ip), vehicle: Klucel (hydroxypropylcellulose) (HPC) 105 % of control | dose: 75.0 mg/kg/injection, schedule: Q01DX005 (ip), vehicle: Klucel (hydroxypropylcellulose) (HPC) 105 % of control | dose: 150.0 mg/kg/injection, schedule: Q01DX005 (ip), vehicle: Klucel (hydroxypropylcellulose) (HPC) 104 % of control

Nc1cc(=O)[nH]c2ncnn12
inactive: dose: 25.0 mg/kg/injection, schedule: Q01DX009 (ip), vehicle: saline 103 % of control | [4] 109 % of control | [5] 102 % of control | [6] 99 % of control

O=C1CSC(c2ccccc2Cl)N1N1C(=O)CSC1c1ccccc1Cl (configuration not stated)
inactive: [1] 100 % of control | [2] 93 % of control | [3] 98 % of control

COc1ccc(C#CC2(O)c3ccccc3C(O)(C#Cc3ccc(OC)cc3)c3ccccc32)cc1 (configuration not stated)
inactive: [14] 98 % of control | [15] 98 % of control

Cn1[nH]c(C(C)(C)O)cc1=O
inactive: dose: 100.0 mg/kg/injection, schedule: Q01DX001 (ip), vehicle: saline 107 % of control | dose: 200.0 mg/kg/injection, schedule: Q01DX001 (ip), vehicle: saline 97 % of control | dose: 400.0 mg/kg/injection, schedule: Q01DX001 (ip), vehicle: saline 101 % of control

N#Cc1ccc(C#N)cc1
inactive: [14] 90 % of control | dose: 50.0 mg/kg/injection, schedule: Q04DX003 (ip), vehicle: saline with Tween-80 91 % of control | [15] 100 % of control | dose: 100.0 mg/kg/injection, schedule: Q04DX003 (ip), vehicle: saline with Tween-80 91 % of control | [16] 100 % of control | dose: 200.0 mg/kg/injection, schedule: Q04DX003 (ip), vehicle: saline with Tween-80 87 % of control

CCSC(C)(C)C
inactive: [4] 102 % of control | [5] 100 % of control | [6] 100 % of control

CCN(CC)CCC[Si]1(C)c2ccccc2CCc2ccccc21
inactive: dose: 25.0 mg/kg/injection, schedule: Q04DX003 (ip), vehicle: saline 111 % of control | [17] 102 % of control | [10] 92 % of control

COC(=O)C(=CNC(N)=O)C(=O)OC
inactive: [7] 96 % of control | [8] 100 % of control | [9] 94 % of control

COc1ccc(C(=O)C(CN(C)C)CN(C)C)c(OC)c1
inactive: dose: 7.5 mg/kg/injection, schedule: Q01DX005 (ip), vehicle: saline 121 % of control | dose: 15.0 mg/kg/injection, schedule: Q01DX005 (ip), vehicle: saline 108 % of control

CN1CC(=O)NC2(CCCC2)C1=O
inactive: dose: 37.5 mg/kg/injection, schedule: Q04DX002 (ip), vehicle: Klucel (hydroxypropylcellulose) (HPC) 102 % of control | dose: 75.0 mg/kg/injection, schedule: Q04DX002 (ip), vehicle: Klucel (hydroxypropylcellulose) (HPC) 101 % of control | dose: 150.0 mg/kg/injection, schedule: Q04DX002 (ip), vehicle: Klucel (hydroxypropylcellulose) (HPC) 99 % of control | dose: 300.0 mg/kg/injection, schedule: Q04DX002 (ip), vehicle: Klucel (hydroxypropylcellulose) (HPC) 105 % of control

COc1ccccc1NC(=O)C1C(=O)C(=O)N(c2ccccc2OC)C1=O (configuration not stated)
inactive: dose: 50.0 mg/kg/injection, schedule: Q01DX009 (ip), vehicle: Klucel (hydroxypropylcellulose) (HPC) 106 % of control | dose: 100.0 mg/kg/injection, schedule: Q01DX009 (ip), vehicle: Klucel (hydroxypropylcellulose) (HPC) 106 % of control | dose: 200.0 mg/kg/injection, schedule: Q01DX009 (ip), vehicle: Klucel (hydroxypropylcellulose) (HPC) 100 % of control

CN(CCO)c1ncnc2c1ncn2C
inactive: dose: 50.0 mg/kg/injection, schedule: Q01DX005 (ip), vehicle: saline 99 % of control | dose: 100.0 mg/kg/injection, schedule: Q01DX005 (ip), vehicle: saline 108 % of control | dose: 200.0 mg/kg/injection, schedule: Q01DX005 (ip), vehicle: saline 100 % of control

COC(OC)c1cc(=O)[nH]c(=S)[nH]1
inactive: [17] 95 % of control | [10] 96 % of control | dose: 200.0 mg/kg/injection, schedule: Q04DX003 (ip), vehicle: saline 93 % of control | dose: 400.0 mg/kg/injection, schedule: Q04DX003 (ip), vehicle: saline 104 % of control
